Measurements as given in publication PMC12406203 (Journal of Medicinal Chemistry, 2025).

Legend:
Experiment in all cases: KINOMEscan
Assay type in all cases: binding
MEK1 = molecular target: T1, MEK1 (Homo sapiens, UniProt Q02750)
T1 construct: purchased Eurofins DiscoverX, LLC; host or cells: E. coli (BL21-derived, T7 phage) or HEK-293

FGFR3 = molecular target: T2, FGFR3 (Homo sapiens, UniProt P22607)
T2 construct: purchased Eurofins DiscoverX, LLC; host or cells: E. coli (T7 phage) or HEK-293
T2 sequence (P22607 23-806): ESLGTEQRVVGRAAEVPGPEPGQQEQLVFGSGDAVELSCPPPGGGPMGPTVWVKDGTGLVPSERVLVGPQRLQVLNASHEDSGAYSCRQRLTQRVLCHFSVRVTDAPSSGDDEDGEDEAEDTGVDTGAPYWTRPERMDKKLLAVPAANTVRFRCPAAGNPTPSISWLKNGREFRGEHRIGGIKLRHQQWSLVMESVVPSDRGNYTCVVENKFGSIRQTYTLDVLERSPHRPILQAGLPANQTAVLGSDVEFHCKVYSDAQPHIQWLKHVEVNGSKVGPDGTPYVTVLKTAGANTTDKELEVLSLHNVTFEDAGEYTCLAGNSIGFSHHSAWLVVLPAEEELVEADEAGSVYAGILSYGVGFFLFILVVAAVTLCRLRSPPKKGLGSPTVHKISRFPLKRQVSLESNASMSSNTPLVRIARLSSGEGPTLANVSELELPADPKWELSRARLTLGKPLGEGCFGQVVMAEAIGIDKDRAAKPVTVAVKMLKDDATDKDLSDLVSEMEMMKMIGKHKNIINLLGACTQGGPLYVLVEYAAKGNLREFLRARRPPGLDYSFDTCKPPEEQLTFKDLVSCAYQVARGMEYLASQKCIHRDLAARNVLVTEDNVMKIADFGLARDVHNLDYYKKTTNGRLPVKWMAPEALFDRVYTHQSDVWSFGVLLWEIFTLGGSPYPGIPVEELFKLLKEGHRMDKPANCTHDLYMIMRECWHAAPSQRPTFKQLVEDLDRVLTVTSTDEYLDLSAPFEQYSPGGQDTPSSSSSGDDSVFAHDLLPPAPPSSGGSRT

p38α = molecular target: T3, p38α (Homo sapiens, UniProt Q16539)
T3 construct: purchased Eurofins DiscoverX, LLC; host or cells: E. coli (BL21-derived, T7 phage) or HEK-293
T3 sequence (Q16539 whole entry): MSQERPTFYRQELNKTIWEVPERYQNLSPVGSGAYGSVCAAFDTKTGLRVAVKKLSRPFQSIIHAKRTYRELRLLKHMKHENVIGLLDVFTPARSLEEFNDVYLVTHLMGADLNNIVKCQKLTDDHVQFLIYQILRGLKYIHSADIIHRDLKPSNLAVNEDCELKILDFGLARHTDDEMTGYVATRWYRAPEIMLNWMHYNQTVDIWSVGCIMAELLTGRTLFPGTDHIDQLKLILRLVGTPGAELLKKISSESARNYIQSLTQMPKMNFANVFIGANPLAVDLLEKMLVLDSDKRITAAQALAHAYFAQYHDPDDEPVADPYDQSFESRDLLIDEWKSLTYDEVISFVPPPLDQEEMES

CSNK1D = molecular target: T4, CSNK1D (Homo sapiens, UniProt P48730)
T4 construct: purchased Eurofins DiscoverX, LLC; host or cells: E. coli (T7 phage) or HEK-293
T4 sequence (P48730 whole entry): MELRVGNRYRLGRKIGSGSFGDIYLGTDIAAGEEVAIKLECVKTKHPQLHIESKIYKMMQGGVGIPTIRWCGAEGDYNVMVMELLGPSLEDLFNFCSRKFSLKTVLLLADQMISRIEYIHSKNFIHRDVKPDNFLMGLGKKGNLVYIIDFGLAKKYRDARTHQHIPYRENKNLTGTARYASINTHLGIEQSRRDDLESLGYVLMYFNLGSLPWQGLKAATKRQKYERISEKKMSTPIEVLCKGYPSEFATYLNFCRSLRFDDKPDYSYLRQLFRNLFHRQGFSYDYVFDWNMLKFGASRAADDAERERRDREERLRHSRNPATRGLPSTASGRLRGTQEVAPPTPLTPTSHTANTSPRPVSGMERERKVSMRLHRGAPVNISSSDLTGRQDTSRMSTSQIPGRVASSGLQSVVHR

CSNK1G2 = molecular target: T5, CSNK1G2 (Homo sapiens, UniProt P78368)
T5 construct: purchased Eurofins DiscoverX, LLC; host or cells: E. coli (T7 phage) or HEK-293
T5 sequence (P78368 whole entry): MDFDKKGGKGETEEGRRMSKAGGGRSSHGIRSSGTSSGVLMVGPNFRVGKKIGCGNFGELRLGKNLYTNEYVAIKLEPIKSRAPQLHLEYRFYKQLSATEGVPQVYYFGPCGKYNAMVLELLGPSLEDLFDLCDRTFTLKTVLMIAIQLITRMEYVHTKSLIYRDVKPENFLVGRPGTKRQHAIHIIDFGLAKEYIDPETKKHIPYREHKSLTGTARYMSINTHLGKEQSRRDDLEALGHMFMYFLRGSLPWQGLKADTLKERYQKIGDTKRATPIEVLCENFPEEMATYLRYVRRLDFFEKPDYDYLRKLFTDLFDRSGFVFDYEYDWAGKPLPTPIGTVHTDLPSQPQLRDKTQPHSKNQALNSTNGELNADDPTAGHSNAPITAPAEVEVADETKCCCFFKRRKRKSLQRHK

SNARK = molecular target: T6, SNARK (Homo sapiens, UniProt Q9H093)
T6 construct: purchased Eurofins DiscoverX, LLC; host or cells: E. coli BL21-derived host (T7 phage) or HEK-293
T6 sequence (Q9H093 1-628): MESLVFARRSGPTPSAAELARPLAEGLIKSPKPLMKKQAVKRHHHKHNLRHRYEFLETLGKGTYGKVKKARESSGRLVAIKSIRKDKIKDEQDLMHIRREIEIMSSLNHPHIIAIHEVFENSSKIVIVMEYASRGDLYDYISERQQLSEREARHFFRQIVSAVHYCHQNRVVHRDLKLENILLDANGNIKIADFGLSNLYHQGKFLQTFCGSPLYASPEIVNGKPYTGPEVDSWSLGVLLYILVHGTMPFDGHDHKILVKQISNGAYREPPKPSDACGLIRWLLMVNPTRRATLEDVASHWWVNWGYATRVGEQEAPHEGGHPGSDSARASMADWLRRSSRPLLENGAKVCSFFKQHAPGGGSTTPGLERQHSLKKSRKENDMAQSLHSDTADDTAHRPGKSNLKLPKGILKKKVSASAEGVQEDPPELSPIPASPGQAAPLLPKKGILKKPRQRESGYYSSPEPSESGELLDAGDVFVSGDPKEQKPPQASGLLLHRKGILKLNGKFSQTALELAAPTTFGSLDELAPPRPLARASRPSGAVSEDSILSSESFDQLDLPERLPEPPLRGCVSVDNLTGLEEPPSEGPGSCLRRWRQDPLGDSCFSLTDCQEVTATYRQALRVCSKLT

CHEK1 = molecular target: T7, CHEK1 (Homo sapiens, UniProt O14757)
T7 construct: purchased Eurofins DiscoverX, LLC; host or cells: E. coli (T7 phage) or HEK-293
T7 sequence (O14757 1-476): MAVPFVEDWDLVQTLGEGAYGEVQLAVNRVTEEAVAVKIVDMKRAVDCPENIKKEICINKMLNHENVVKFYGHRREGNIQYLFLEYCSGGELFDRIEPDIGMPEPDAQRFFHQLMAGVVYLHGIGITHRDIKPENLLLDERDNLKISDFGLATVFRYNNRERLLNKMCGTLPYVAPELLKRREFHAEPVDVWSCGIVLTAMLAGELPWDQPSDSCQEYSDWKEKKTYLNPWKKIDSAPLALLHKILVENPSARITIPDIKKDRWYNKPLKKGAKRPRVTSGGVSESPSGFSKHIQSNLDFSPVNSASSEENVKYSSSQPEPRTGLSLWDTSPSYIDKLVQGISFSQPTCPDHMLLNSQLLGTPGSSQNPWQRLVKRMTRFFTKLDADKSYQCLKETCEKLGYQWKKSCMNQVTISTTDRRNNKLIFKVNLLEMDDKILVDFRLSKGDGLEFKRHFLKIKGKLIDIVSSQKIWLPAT

NLK = molecular target: T8, NLK (Homo sapiens, UniProt Q9UBE8)
T8 construct: purchased Eurofins DiscoverX, LLC; host or cells: E. coli (BL21-derived, T7 phage) or HEK-293
T8 sequence (Q9UBE8 1-527): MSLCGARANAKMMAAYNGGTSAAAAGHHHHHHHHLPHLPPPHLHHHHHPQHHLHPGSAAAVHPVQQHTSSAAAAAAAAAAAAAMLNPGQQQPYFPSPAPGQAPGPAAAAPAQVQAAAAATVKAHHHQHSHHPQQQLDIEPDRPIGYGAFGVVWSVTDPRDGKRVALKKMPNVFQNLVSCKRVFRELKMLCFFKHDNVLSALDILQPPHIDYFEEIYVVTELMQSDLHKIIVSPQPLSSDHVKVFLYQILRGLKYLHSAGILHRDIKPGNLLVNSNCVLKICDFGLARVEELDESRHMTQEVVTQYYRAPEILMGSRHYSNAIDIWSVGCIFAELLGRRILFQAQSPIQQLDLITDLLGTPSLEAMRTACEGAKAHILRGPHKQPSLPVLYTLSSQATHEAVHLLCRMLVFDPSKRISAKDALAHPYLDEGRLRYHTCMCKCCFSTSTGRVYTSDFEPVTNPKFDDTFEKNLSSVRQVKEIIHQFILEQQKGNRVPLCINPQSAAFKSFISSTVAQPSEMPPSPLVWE

T1 sequence (Q02750 whole entry): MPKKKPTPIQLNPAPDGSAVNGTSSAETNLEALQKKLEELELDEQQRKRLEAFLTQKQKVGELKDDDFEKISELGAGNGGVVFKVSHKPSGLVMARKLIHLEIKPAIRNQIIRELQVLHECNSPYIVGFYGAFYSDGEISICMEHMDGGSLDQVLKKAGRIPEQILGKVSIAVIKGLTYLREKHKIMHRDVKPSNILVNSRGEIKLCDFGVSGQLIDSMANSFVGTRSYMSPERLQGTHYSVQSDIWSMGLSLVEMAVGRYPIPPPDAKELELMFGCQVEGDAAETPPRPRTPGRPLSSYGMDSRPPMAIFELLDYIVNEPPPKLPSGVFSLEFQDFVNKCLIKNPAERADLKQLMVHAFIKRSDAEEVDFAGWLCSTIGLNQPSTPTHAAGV

| SMILES | RA @ 1000nM (MEK1) | RA @ 10000nM (MEK1) | RA @ 1000nM (FGFR3) | RA @ 10000nM (FGFR3) | RA @ 1000nM (p38α) | RA @ 10000nM (p38α) | RA @ 1000nM (CSNK1D) | RA @ 10000nM (CSNK1D) | RA @ 1000nM (CSNK1G2) | RA @ 10000nM (CSNK1G2) | RA @ 1000nM (SNARK) | RA @ 10000nM (SNARK) | RA @ 1000nM (CHEK1) | RA @ 10000nM (CHEK1) | RA @ 1000nM (NLK) | RA @ 10000nM (NLK) |
| --- | --- | --- | --- | --- | --- | --- | --- | --- | --- | --- | --- | --- | --- | --- | --- | --- |
| CC(C)Cn1ncc2cc(Cc3ccc(F)cc3F)c(C(=O)NCCN(C)C)cc21 [Compound 94, 5-(2,4-Difluorobenzyl)-N-(2-(dimethylamino)ethyl)-1-isobutyl-1H-indazole-6-carboxamide] | 98% | 74% | 100% | 100% | 2.3% | 0.4% | 86% | 79% | 96% | 93% | 100% | 93% | 100% | 100% | 100% | 98% |
| CN(C)CCNC(=O)c1cc2c(cnn2CC2CCCCC2)cc1Cc1ccc(F)cc1F [Compound 95, 1-(Cyclohexylmethyl)-5-(2,4-difluorobenzyl)-N-(2-(dimethylamino)ethyl)-1H-indazole-6-carboxamide] | 98% | 100% | 100% | 92% | 6.7% | 0.1% | 93% | 84% | 100% | 98% | 93% | 92% | 100% | 100% | 100% | 100% |
